Patent publication US20200385396A1, “Compond for treatment or prevention of obesity or diseases related to obesity, and application thereof” (SHANGHAI INSTITUTES FOR BIOLOGICAL SCIENCES, CHINESE …, priority 2017, published 2020)

Experiments:
Assay type in all cases: in vivo, mouse
[1] = test system: high-fat-induced obese mice; assay: Weight loss in high-fat-induced obese mice, periodic intermittent administration; details: 20 mg/kg
Description: All animal experiments were approved by the Animal Management Committee of SIBCB. C57BL/6 mice were purchased from Lingchang company (normal mice and high-fat diet-induced obese mice), C57/BLJ6 (NUCB2 gene knockout mice for breeding and background purification) were purchased from Lingchang company, OB/OB mice were purchased from Slack company. A high-fat diet (45% kcal, D12451) for inducing obese mice was purchased from Research Diets. Starting from the sixth week, it was fed with high-fat diet for 14-25 weeks. The rest of the mice used normal diet (13.5% kcal). The mice were housed in the SPF grade animal house of SIBCB. The lights were turned off for 12 hours (19: 00-07: 00), and the lights were turned on for 12 hours (07: 00-19: 00).
(§1) Mice were intraperitoneally injected with DMSO or HLY72 (dissolved in DMSO) 25 μL within 2 hours before turning off the lamp. During the intragastric experiment, the high concentration of HLY72 dissolved in DMSO was dissolved in 10% cyclodextrin, and the total volume was 100 μL Volume by gavage, so that the final concentration of DMSO was less than 10%. The diet was weighed at the 3rd hour, the 6th hour, the 12th hour, and the 24th hour respectively after the lights out. The corresponding mouse body weight was also weighed at the same time before the daily administration. The fat content of mice was measured with the magnetic resonance fat content measuring instrument of the animal platform in SIBCB.
According to the previous results, it is considered that HLY72 should not be used continuously for a long time. In view of the fact that many mechanisms of NUCB2 functioning are still unclear, the simplest intermittent drug administration method was selected, that is, the drug was administered for 3 days, stopped for 4 days, one dosing cycle per week, and repeated for 3 courses (FIG. 10a).
In the high-fat-induced obese mouse model, three days after the first injection of HLY72, the body weight of the mice is decreased from 33.56±0.63 g to 31.61±0.74 g, and three days after the second administration, the body weight of mice is decreased from 31.23±0.57 g to 29.36±0.58 g, three days after the third administration, the body weight of mice is decreased from 29.39±0.51 g to 27.80±0.62 g, at the end of 21 days after 3 cycles, the overall weight of the mice is decreased from 33.56±0.63 g to 27.65±0.54 g (FIG. 10b). The whole process corresponds to 16.88%±0.51% of the total weight loss (FIG. 10c).

normal mice [2] = assay: Body weight and daily food intake of normal mice under repeated dosing; details: for body weight after treatment / daily food intake compared with the control group / reduction in total body weight / body weight before treatment: normal mice; for body weight before treatment: start
Procedure: as §1
After screening better small-molecule compound and probably determining its key groups, whether HLY72 has a weight-loss effect has become the most wanted result immediately. For this problem, we directly used normal mice intraperitoneally injected with HLY72 for 5 consecutive days.
In order to further investigate whether the administration of HLY72 by oral gavage also has a weight-loss effect, and because of the convenience of oral administration, many drugs are taken orally. We have also considered one step more for future applications, so that the administration of oral gavage was used to see the effect of HLY72 on the body weight of normal mice. The same was 20 mg/kg HLY72 intragastric treatment for 5 days.
After confirming that HLY72 can indeed reduce the weight of mice, we examine two more questions: (1) Whether HLY72's weight-reducing effect is dose-dependent; (2) Whether HLY72-like molecule HLY103 not binding to NUCB2 has a weight-reducing effect. […] We also do the statistics on the daily food intake of the mice in these three days, which is consistent with the conclusion of the short-term statistics in the previous day.

normal mice [3] = assay: Food intake of mice after single intraperitoneal injection
Procedure: as §1
The next question we are very concerned about is whether HLY78 has similar functions to NUCB2 protein in mice. Up to now, the most classic function reported for NUCB2 protein is to reduce the food intake of mice at night. Therefore, the experiment was designed: 20 mg/kg of HLY78 was injected intraperitoneally within two hours before turning off the lights at night, and then the food intake of the mice was measured at different time points (0-3 h, 0-6 h, 0-12 h, 0-24 h). […] During the three days of the adaptive injection period before HLY78 injection, both groups of mice were injected with DMSO. On the day of injection of HLY78 and the two days before the injection of DMSO, the body weight of the two groups of mice is also the same (FIG. 2b).
Next, two small molecules HLY72 and HLY103 were selected to perform functional experiments on the food intake in mice.

[4] = intraperitoneal 20 mg/kg, 5 consecutive days

C=Cc1cccc2c1N(C)Cc1cc3c(cc1-2)OCO3 [HLY72]
average daily food intake in the three administration periods compared with the DMSO group [1]: significant decrease
overall weight at the end of 21 days after 3 cycles ([1]; 3 cycles): 27.65 ± 0.54 g
body weight before the first administration ([1]; 3 days on / 4 days off, start): 33.56 ± 0.63 g
body weight three days after the first injection ([1]; course 1): 31.61 ± 0.74 g
body weight before the second administration ([1]; course 2): 31.23 ± 0.57 g
body weight three days after the second administration ([1]; course 2): 29.36 ± 0.58 g
body weight before the third administration ([1]; course 3): 29.39 ± 0.51 g
body weight three days after the third administration ([1]; course 3): 27.80 ± 0.62 g
total weight loss ([1]; whole process, 21 days, 3 cycles): 16.88%±0.51%
effect on body weight / weight loss (normal mice [2]; intraperitoneal, 3 consecutive days, HLY72 10 and 20 mg/kg, HLY103 20 mg/kg): concentration gradient
body weight after treatment (normal mice [2]; [4]): 23.37 ± 0.36 g
daily food intake compared with the control group (normal mice [2]; [4]): significantly reduced
reduction in total body weight (normal mice [2]; [4]): 9.21%±0.74%
body weight before treatment (normal mice [2]; intraperitoneal 20 mg/kg): 25.73 ± 0.29 g
body weight after treatment (normal mice [2]; oral gavage 20 mg/kg, 5 days): 23.14 ± 0.45 g
daily food intake compared with the control group (normal mice [2]; oral gavage 20 mg/kg, 5 days): decreased significantly
reduction in total body weight (normal mice [2]; oral gavage 20 mg/kg, 5 days): 8.43%±0.81%
body weight before treatment (normal mice [2]; oral gavage 20 mg/kg): 25.26 ± 0.37 g
food intake of mice (normal mice [3]; 7.5 mg/kg): no significant effect
food intake of mice (normal mice [3]; 15 mg/kg): significant gradient effect
food intake of mice (normal mice [3]; 30 mg/kg): significant gradient effect
